In patent publication US20190218170A1, “BRANCHED TRIALKYLAMINE PRECURSORS, INTERMEDIATES, PRODUCTS MADE THEREFROM AND PROCESSES OF MANUFACTURE” (priority 2018, published 2019):

What was measured:
Candida albicans = experiment: Microplate dilution assay MIC/MLC; assay type: cell-based; conditions: for MIC < 10%: growth less than 10% of control; for MIC < 50%: growth less than 50% of control; for MLC: minimum lethal concentration
Protocol: (§1) The minimum inhibitory concentration (MIC) and the minimum lethal concentration (MLC) of the chemicals were determined using a microplate dilution assay. Quats were provided as aqueous solutions, while Triclosan and Chloroxylenol were provide as powders which were first dissolved at 5 weight percent in absolute ethanol. A two-fold serial dilution series of each test chemical was prepared in Trypticase Soy Broth at 20% of the standard concentration (TSB20) and in Sabouraud Dextrose Broth at 20% of the standard concentration (SDB20) in 96-well micro-titer plates. A total of 10 dilutions were prepared and four replicate tests were performed for each dilution. […] Control solutions containing only media were included for each plate. Suspensions of Staphylococcus aureus, Escherichia coli, and Candida albicans were prepared from one-day old agar plate cultures in Butterfields Phosphate Diluent to a concentration of approximately 10^7 to 10^8 cells per milliliter. Each test well was inoculated with the diluted culture suspensions at a concentration of 10^3 to 10^4 cells per well and then incubated at 32° C. with shaking at 150 rpm for approximately 24 hours, after which the optical density of each well was determined spectrophotometrically at 600 nm. Wells containing uninoculated media without test chemical were included in each plate as negative controls and, following inoculation, as positive controls.
(§2) Selected wells at or below the MIC were tested for MLC by spotting three microliters from each replicate well onto Trypticase Soy agar for S. aureus and E. coli, or Sabouraud Dextrose agar for C. albicans.

Staphylococcus aureus = experiment: Microplate dilution assay MIC/MLC; assay type: cell-based; conditions: for MIC < 10%: growth less than 10% of control; for MIC < 50%: growth less than 50% of control; for MLC: minimum lethal concentration
Protocol: as §1, §2

Escherichia coli = experiment: Microplate dilution assay MIC/MLC; assay type: cell-based; conditions: for MIC < 10%: growth less than 10% of control, 24 hours, 32° C.; for MIC < 50%: growth less than 50% of control; for MLC: minimum lethal concentration
Protocol: as §1, §2

[1] = Ready Biodegradability CO2 Evolution Test OECD 301B
Protocol: The biodegradability of the branched aldehyde intermediates of Example 2 (4-ethyl-2-methyloctanal) and Example 25 (2,4-diethyl-2-octenal) were determined by the Ready Biodegradability—CO2 Evolution Test—Degradation of test compound according to OECD Guidelines for Testing of Chemicals CO2 Evolution Test 301B.

[2] = Solubility of N-alkyl-N-methylglucamines in MilliQ water and SLS/SDS solution; assay type: physicochemical; conditions: for Solubility in 10 wt % SLS / Solubility in pure MilliQ: heated to 80° C., ultrasonicated, cooled to room temperature; for Solubility in 10 wt % SLS: pH 10.8-11.1; for Solubility in 10 wt % SDS: pH 11.8-12.1; for Solubility in pure MilliQ: pH 9-9.5
Protocol: The solubility of three N-alkyl-N-methylglucamines (i.e., N-(2-ethyl-hexyl)-N-methylglucamine, N-decyl-N-methylglucamine, and N-(4-ethyl-2-methyloctyl)-N-methylglucamine) was investigated in pure MilliQ water and in a 10 wt % sodium lauryl sulfate (SLS) solution. The mixtures were heated to 80° C., ultrasonicated, and cooled to room temperature.

[3] = High-shear foaming of N-alkyl-N-methylglucamines in commercial blender; assay type: physicochemical; conditions: 1 wt % test substance in 10 wt % SDS, diluted to 0.05 wt % surfactant
Protocol: The high-shear foaming behavior of linear and branched N-alkyl-N glucamines was investigated, as this can have an impact on their performance in home care applications. […] The solutions were heated to 80° C., ultrasonicated for 1 h, and cooled to room temperature. Finally, the as-obtained solutions were diluted with MilliQ water to obtain a 0.05 wt % surfactant solution. In agreement with the literature on branched hydrophobes, the high-shear foaming tests performed in the commercial blender indicate that the linear N-decyl-N-methylglucamine (IC10 NMG) solution foams relatively more than its branched counterpart solution. For all solutions, the initial foam volume is between 40 and 53 mL. Lauramine oxide (LAO) appears to be foamier than the N-alkyl-N-methylglucamines.

zein protein = tested on: zein protein
Source text: Amine oxides with linear and branched hydrophobes from Examples 65 and 66 were compared in a screen to predict mildness of surfactants. There is a correlation between the ability of a surfactant to denature a protein and the skin irritation potential of that surfactant. The relationship is believed to result from surfactant binding to proteins like keratin, followed by the denaturation of these proteins, leading to skin irritation. A common screening test involves measuring the amount of zein (a corn protein which is insoluble in water) solubilized by a surfactant solution, the Zein Solubilization Test (Moore et al., 2003 and references therein)
For the test, 0.0750 g of zein protein is transferred into a 1.5 mL centrifuge tube. To this 1.5 mL of 1% surfactant solution is added, mixed, and placed in a 30 C incubator with mild stirring for 30 minutes. After 30 minutes has elapsed, the tube is centrifuged for 30 min at 3600 rpm. The solution is filtered through a pre-weighed 8 micron filter paper, and then dried overnight in a 50° C. oven. The insoluble zein residue is then weighed and the wt % Zein dissolved is calculated using the equation below. Each solution is analyzed in triplicate. The Zein score is normalized to a standard included in each set of tests, in this case LAE10.
% zein dissolved=(total zein added−total zein after drying Total zein added)×100

Compound: CCCCCCCCCCCC[N+](C)(C)Cc1ccccc1.[Cl-] [BAC-12 linear]
- MIC < 10% (Candida albicans): 0.0016 Weight percent
- MIC < 50% (Candida albicans): 0.00078 Weight percent
- MLC (Candida albicans): 0.0016 Weight percent
- MIC < 10% (Staphylococcus aureus): 0.0002 Weight percent
- MIC < 50% (Staphylococcus aureus): 0.0002 Weight percent
- MLC (Staphylococcus aureus): 0.0002 Weight percent
- MIC < 10% (Escherichia coli): 0.00078 Weight percent
- MIC < 50% (Escherichia coli): 0.00078 Weight percent
- MLC (Escherichia coli): 0.00078 Weight percent

Compound: CCCCC(CC)CC(CC)C[N+](C)(C)Cc1ccccc1.[Cl-] (stereo not shown) [BAC-b12, N-benzyl-2,4-diethyl-N,N-dimethyloctan-1-aminium chloride]
- MIC < 10% (Candida albicans): 0.0063 Weight percent
- MIC < 50% (Candida albicans): 0.0063 Weight percent
- MLC (Candida albicans): 0.0063 Weight percent
- MIC < 10% (Staphylococcus aureus): 0.00039 Weight percent
- MIC < 50% (Staphylococcus aureus): 0.00039 Weight percent
- MLC (Staphylococcus aureus): 0.00078 Weight percent
- MIC < 10% (Escherichia coli): 0.0063 Weight percent
- MIC < 50% (Escherichia coli): 0.0063 Weight percent
- MLC (Escherichia coli): 0.0063 Weight percent

Compound: Cc1cc(O)cc(C)c1Cl [Chloroxylenol]
- MIC < 10% (Candida albicans): 0.0083 Weight percent
- MIC < 50% (Candida albicans): 0.0083 Weight percent
- MLC (Candida albicans): >0.0083 Weight percent
- MIC < 10% (Staphylococcus aureus): 0.0042 Weight percent
- MIC < 50% (Staphylococcus aureus): 0.0042 Weight percent
- MLC (Staphylococcus aureus): >0.0083 Weight percent
- MIC < 10% (Escherichia coli): >0.0083 Weight percent
- MIC < 50% (Escherichia coli): >0.0083 Weight percent
- MLC (Escherichia coli): >0.0083 Weight percent

Compound: CCCCC(CC)CC(C)C=O (stereo not shown) [Example 2, 4-ethyl-2-methyloctanal]
- Biodegradation (%) ([1]; Day 0): 0%
- Biodegradation (%) ([1]; Day 2): 0%
- Biodegradation (%) ([1]; Day 6): 15%
- Biodegradation (%) ([1]; Day 7): 21%
- Biodegradation (%) ([1]; Day 9): 31%
- Biodegradation (%) ([1]; Day 14): 47%
- Biodegradation (%) ([1]; Day 19): 54%
- Biodegradation (%) ([1]; Day 23): 56%
- Biodegradation (%) ([1]; Day 28): 57%
- Biodegradation (%) ([1]; Day 29 (first line)): 57%
- Biodegradation (%) ([1]; Day 29 (second line)): 61%

Compound: CCCCC(CC)CC(C=O)CC (stereo not shown) [Example 25, 2,4-diethyloctanal]
- Biodegradation (%) ([1]; Day 0): 0%
- Biodegradation (%) ([1]; Day 2): 0%
- Biodegradation (%) ([1]; Day 6): 0%
- Biodegradation (%) ([1]; Day 7): 9%
- Biodegradation (%) ([1]; Day 9): 27%
- Biodegradation (%) ([1]; Day 14): 48%
- Biodegradation (%) ([1]; Day 19): 53%
- Biodegradation (%) ([1]; Day 23): 53%
- Biodegradation (%) ([1]; Day 28): 55%
- Biodegradation (%) ([1]; Day 29 (first line)): 55%
- Biodegradation (%) ([1]; Day 29 (second line)): 57%

Compound: CCCCC(CC)CN(C)C[C@H](O)[C@@H](O)[C@H](O)[C@H](O)CO (stereo partly shown) [N-(2-ethyl-hexyl)-N-methylglucamine, N-(2-ethylhexyl)-N-methylglucamine]
- Solubility in 10 wt % SLS [2]: >1000 ppm
- Solubility in 10 wt % SDS [2]: ≥1%

Compound: CCCCC(CC)CC(C)CN(C)C[C@H](O)[C@@H](O)[C@H](O)[C@H](O)CO (stereo partly shown) [N-(4-ethyl-2-methyloctyl)-N-methylglucamine]
- Solubility in pure MilliQ [2]: <1000 ppm
- Solubility in 10 wt % SLS [2]: >1000 ppm
- Solubility in 10 wt % SDS [2]: ≥1%

Compound: CCCCCCCCCCN(C)C[C@H](O)[C@@H](O)[C@H](O)[C@H](O)CO [N-decyl-N-methylglucamine]
- Solubility in pure MilliQ [2]: <1000 ppm
- Solubility in 10 wt % SLS [2]: >1000 ppm
- Solubility in 10 wt % SDS [2]: ≥1%
- Foam volume after 5 seconds stirring at speed 1 [3]: 50 mL
- Foam volume after 5 minutes settling [3]: 49 mL

Compound: Oc1cc(Cl)ccc1Oc1ccc(Cl)cc1Cl [Triclosan]
- MIC < 10% (Candida albicans): 0.0016 Weight percent
- MIC < 50% (Candida albicans): 0.0016 Weight percent
- MLC (Candida albicans): >0.0016 Weight percent
- MIC < 10% (Staphylococcus aureus): 0.00002 Weight percent
- MIC < 50% (Staphylococcus aureus): 0.00002 Weight percent
- MLC (Staphylococcus aureus): 0.00003 Weight percent
- MIC < 10% (Escherichia coli): 0.00010 Weight percent
- MIC < 50% (Escherichia coli): 0.00010 Weight percent
- MLC (Escherichia coli): 0.00010 Weight percent

Compound: CCCCC(CC)CN(C)C[C@H](O)[C@@H](O)[C@H](O)[C@H](O)CO (stereo partly shown) [bC10 NMG]
- Foam volume after 5 seconds stirring at speed 1 [3]: 40 mL
- Foam volume after 5 minutes settling [3]: 38 mL

Compound: CC(=O)[O-].[Na+] [sodium acetate, reference compound]
- Biodegradation (%) ([1]; Day 0): 0%
- Biodegradation (%) ([1]; Day 2): 32%
- Biodegradation (%) ([1]; Day 6): 52%
- Biodegradation (%) ([1]; Day 7): 54%
- Biodegradation (%) ([1]; Day 9): 60%
- Biodegradation (%) ([1]; Day 14): 66%
- Biodegradation (%) ([1]; Day 19): 69%
- Biodegradation (%) ([1]; Day 23): 71%
- Biodegradation (%) ([1]; Day 28): 72%
- Biodegradation (%) ([1]; Day 29 (first line)): 74%
- Biodegradation (%) ([1]; Day 29 (second line)): 78%

Compound: Sodium lauryl ether sulfate [SLES]
- Zein score - normalized to LAE10 (zein protein): 3.488
